# Test results: patent US9629830B2, “EphA4 inhibitors as neuroprotective agents” (The Hong Kong University of Science and Technology, priority 2013, dated 2017)
# Key:
# [1] = tested on: Aβ-induced reduction of neurotransmission in hippocampal neurons; test: mEPSC recording in Aβ-treated cultured hippocampal neurons; type: cell-based, rat
# Description: Primary cortical and hippocampal neurons were prepared from embryonic day 18-19 rat embryos as described previously^24. Briefly, cortical neurons (6×10^6 per plate) were plated on 100-mm culture dishes coated with poly-D-lysine (12.5 μg/mL; Sigma). Rat hippocampal neurons were seeded on 18-mm coverslips coated with poly-D-lysine (50 μg/mL) at a density of 0.5×10^5/18-mm coverslip for immunocytochemical analysis, 0.1×10^5/18-mm coverslip for growth cone collapse assay, or 1×10^5 or 1.5×10^5/18-mm coverslip for mEPSC recording. Neurons were fed Neurobasal medium (Invitrogen) supplemented with 2% B27 (Invitrogen). Acute brain slices were prepared from P15-P17 Sprague-Dawley rats. Briefly, the rats were rapidly decapitated, and their brains were immersed in ice-cold artificial cerebrospinal fluid (ACSF). The hippocampus was dissected, and 300-μm-thick slices were prepared using a vibratome (Lieca). The slices were then transferred into an incubating chamber containing circulating ACSF equilibrated with 95% O2+5% CO2 and held at room temperature for at least 2 h for recovery prior to experiments^65.
# For miniature EPSC recordings, hippocampal neurons at ˜25-28 DIV were co-treated with or without 500 nM Aβ together with the testing reagents for 24 h. Whole-cell patch-clamp recordings were made at room temperature with external solution containing (in mM) 110 NaCl, 5 KCl, 2 CaCl2, 0.8 MgCl2, 10 HEPES, and 10 D-glucose (pH 7.4) as well as an internal solution containing (in mM) 135 CsCl2, 10 HEPES, 2 MgCl2, 4 NaATP, 0.4 NaGTP, and 0.5 EGTA (pH 7.2)^24,27. Picrotoxin ([…]) was included in the external solution to block GABAergic IPSCs along with 0.5 μM TTX to prevent action potential-evoked EPSCs. For miniature EPSC recordings, cells were held at −70 mV. The pipette resistances for these experiments were typically 3-5 MΩ, while series resistances were 15-20 MΩ. The minis from each cell was recorded for 1 min in each condition. The measurement of mEPSC was according to that described in Mini Analysis Program for measuring AMPA receptor EPSCs (Synaptosoft Inc.). Only recording epochs in which series and input resistances varied <10% were analyzed. Data are presented as the mean±SEM of at least 3 experiments.
# [2] = tested on: Aβ-induced impairment of hippocampal LTP; test: HFS-induced LTP (fEPSP slope) in acute hippocampal slices treated with Aβ; type: cell-based, mouse
# Description: Oligomeric Aβ (Aβ) was prepared as described previously^59,60. Briefly, 0.5 mg monomeric Aβ1-42 was dissolved in 22.2 μL dry DMSO and then diluted in ice-cold phenol-red free F-12 medium to yield a final Aβ concentration of 100 μM. The Aβ solution was incubated at 4° C. for 24 h and then centrifuged at 14,000×g for 10 min. The supernatant was frozen in liquid nitrogen and stored at −20° C. for up to 1 month. Unless specified, cultured neurons or hippocampal slices were typically treated with Aβ at 500 nM.
# (§1) For LTP recordings, mouse brains were immediately dissected after sacrifice and soaked in ice-cold 95% O2/5% CO2 (aCSF)^58. Brain slices (300 μm thick) were prepared using a vibrating tissue slicer (HM650V; Thermo), and soaked in oxygenated buffer for 2 h at 32° C. The hippocampal regions were resected and placed at the center of a MED-P210A probe (Panasonic International Inc) with 64 embedded recording electrodes. The slices were then perfused with Aβ at 500 nM in oxygenated aCSF for 2 h before LTP induction^70. For treatment with EphA4 inhibitors, the slices were pretreated with peptides or chemicals for 1 h before application of Aβ. fEPSPs were recorded using a MED64 multichannel recording system, and the data were collected from the dendritic layer of area CA1 at a sampling rate of 10 kHz. For each slice, the baseline stimulus intensity was set at the level that elicited ˜50% of the maximum fEPSP response determined according to the input-output curve. LTP was induced by 3 trains of HFS (100 Hz, 1 s, delivered 30 s apart). The magnitude of LTP was quantified as a percentage change in the fEPSP slope (10%-90%) taken during the 60-min interval after LTP induction.
# APP/PS1 mutant mice = test: HFS-induced hippocampal LTP in WT and APP/PS1 mice after in vivo treatment; design: species or system mouse; conditions: Rhy oral 50 mg·kg−1·day−1 for 3 weeks
# Text: APP/PS1 double-transgenic mice were obtained from Jackson Laboratory (B6C3-Tg[APPswe, PSEN1dE9]85Dbo/J)^66. These mice were generated by incorporating a human/murine APP construct bearing the Swedish double mutation and the exon-9-deleted PSEN1 mutation (APPswe+PSEN1/dE9). APP transgenic mice (Tg2576) expressing a double mutant of human AβPP (Lys^670→Asn^670, Met^671→Leu^671) were also used^31. Both sexes were used for experiments, and all mice used in this study were produced by the Animal Care Facility of The Hong Kong University of Science and Technology. The genotype was confirmed by polymerase chain reaction analysis of tail biopsies. Four to five mice of the same sex were housed in a cage with food and water ad libitum with a 12-hour light/dark cycle.
# To investigate the effect of blocking EphA4 signaling by KYL peptide in AD mice, 4-5-month-old AD transgenic mice were implanted with Alzet mini-osmotic pumps, model 1004, pumping its contents at 0.11 μL/h for 28 days. Pumps were loaded with either 0.23 μg/μL KYL peptide (17 μg) or vehicle solvent in artificial cerebrospinal fluid (CSF). The mini-osmotic pumps were adjusted intracerebroventricularly in the right hemisphere. EphA4 in the CA1 regions of APP/PS1 mice was knocked down by injecting vesicular stomatitis virus glycoprotein G-pseudotyped lentiviral particles with pFUGW-shEphA4 bilaterally into the corresponding regions as described previously^58.
# as §1, with “The hippocampal regions were resected and placed at the center of a MED-P210A probe (Panasonic International Inc) with 64 embedded recording electrodes. The slices were then perfused with Aβ at 500 nM in oxygenated aCSF for 2 h before LTP induction^70.” left out, “LTP was induced by 3 trains of HFS (100 Hz, 1 s, delivered 30 s apart).” left out
# WT and APP/PS1 mutant (Tg) mice were orally administered with corylin ([…]) by daily gavage for 3-4 weeks prior to LTP measurements. LTP induced by 3 trains of HFS (100 Hz for 1 s delivered 30 s apart) in the CA1 region of the SC pathway of the hippocampus was measured. The magnitude of LTP was quantified as the percentage change in the fEPSP slope (10-90%) taken during the 60-min interval after LTP induction.
# [3] = In vitro stability assay in mouse serum (UPLC-MS/MS); type: in vitro ADME; conditions: 3 μM, over the 360-min incubation period
structure (smiles),measurement,setting,value
"CC[C@H]1CN2CC[C@]3(C(=O)Nc4ccccc43)[C@@H]2C[C@@H]1/C(=C\OC)C(=O)OC [Rhy, methyl (7β,16E,20α)-16-(methoxymethylene)-2-oxocorynoxan-17-oate]",mEPSC inter-event interval,"[1]; Rhy 10 μM + Aβ, Aβ alone 897.4±43.4 ms",420.6 ± 9.6 ms
same,mEPSC inter-event interval,"[1]; Rhy 10 μM alone, control 312.9±7.8 ms",512.2 ± 13.6 ms
same,"mean fEPSP slope, last 10 min after LTP induction","[2]; Rhy 30 μM + Aβ, Aβ alone 131.1±3.9%",174.1±9.8%
same,"mean fEPSP slope, last 10 min after LTP induction","[2]; Rhy 30 μM alone, control 172.7±7.5%",168.1±6.0%
same,"mean fEPSP slope, last 10 min after LTP induction","APP/PS1 mutant mice; APP/PS1 (Tg) mice, Tg control 147.6±3.5%",198.1±8.9%
same,"mean fEPSP slope, last 10 min after LTP induction","APP/PS1 mutant mice; WT mice, WT control 194.0±7.0%",180.5±7.7%
same,reduction of Rhy concentration in serum,[3],~20%
